Measured values from ChEMBL document CHEMBL1201862, “PubChem BioAssay data set” (2004).
Active and inactive are the calls of the source.

What was measured:
[1] = molecular target: Cytochrome P450 2D6 (Homo sapiens, UniProt P10635);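 note: CYP2D6 member of a cytochrome P450 panel assay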
[2] = molecular target: Cytochrome P450 2C9 (Homo sapiens, UniProt P11712)
[3] = HEp-2 cell cytotoxicity, dose response, cytotoxicity control for RSV inhibitor project, HTS (AID 2410); format: functional; conditions: human respiratory syncytial virus
[4] = molecular target: T1, Cytochrome P450 1A2 (Homo sapiens, UniProt P05177);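 note: PubChem cytochrome P450 panel assay, CYP1A2 panel member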
T1 sequence (P05177 whole entry): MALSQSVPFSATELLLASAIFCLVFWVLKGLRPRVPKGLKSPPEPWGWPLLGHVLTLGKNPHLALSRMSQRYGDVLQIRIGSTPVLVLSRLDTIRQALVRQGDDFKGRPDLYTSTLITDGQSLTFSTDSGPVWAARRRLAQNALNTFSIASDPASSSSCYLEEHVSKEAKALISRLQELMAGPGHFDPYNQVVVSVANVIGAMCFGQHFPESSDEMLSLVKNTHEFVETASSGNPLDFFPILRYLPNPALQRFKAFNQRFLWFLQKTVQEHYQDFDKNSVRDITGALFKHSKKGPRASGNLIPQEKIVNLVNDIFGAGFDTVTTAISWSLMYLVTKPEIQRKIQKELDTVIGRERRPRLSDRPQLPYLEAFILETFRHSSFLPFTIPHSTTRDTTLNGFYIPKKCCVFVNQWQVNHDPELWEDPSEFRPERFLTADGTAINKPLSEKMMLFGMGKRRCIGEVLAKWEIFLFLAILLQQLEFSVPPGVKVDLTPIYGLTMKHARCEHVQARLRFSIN

[5] = molecular target: Cytochrome P450 3A4 (Homo sapiens, UniProt P08684);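 note: CYP3A4 tested as one member of a cytochrome P450 panel screen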
Sequence of Cytochrome P450 3A4 (P08684 whole entry): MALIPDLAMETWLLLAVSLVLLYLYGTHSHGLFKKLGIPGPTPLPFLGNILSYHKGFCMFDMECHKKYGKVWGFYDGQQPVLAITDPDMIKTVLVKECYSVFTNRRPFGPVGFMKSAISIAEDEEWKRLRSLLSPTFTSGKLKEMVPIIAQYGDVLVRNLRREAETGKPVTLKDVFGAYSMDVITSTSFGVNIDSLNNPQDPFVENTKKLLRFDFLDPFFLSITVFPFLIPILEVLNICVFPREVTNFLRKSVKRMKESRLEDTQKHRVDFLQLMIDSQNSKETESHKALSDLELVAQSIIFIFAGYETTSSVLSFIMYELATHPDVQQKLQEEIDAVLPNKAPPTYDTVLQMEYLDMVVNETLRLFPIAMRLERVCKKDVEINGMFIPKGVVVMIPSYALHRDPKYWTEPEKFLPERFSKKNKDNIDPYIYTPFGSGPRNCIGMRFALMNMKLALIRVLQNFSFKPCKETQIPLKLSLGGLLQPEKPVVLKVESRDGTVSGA

[6] = cells; format: functional
[7] = test system: H4; test: Luminescence Cell-Based Dose Response HTS to Identify Activators of 5'UTR Stem-Loop Driven Prion Protein mRNA Translation in H4 Neuroglioblastoma Cells. [Related pubchem assays: 1829 (Project Summary), 1814 (Primary HTS)]; format: functional; conditions: Homo sapiens
[8] = Luminescence Cell-Based Dose Response HTS to Identify Activators of Luciferase Translation or Activity in H4 […] Cells. [Related pubchem assays: 1829 (Project Summary), 1814 (Primary HTS)]; format: functional
[9] = molecular target: Cytochrome P450 2C19 (Homo sapiens, UniProt P33261); test: Cytochrome panel assay with activity outcomes. Panel member name: p450-cyp2c19 Compounds with AC50 equal or less than 10 uM are considered active; format: functional
Sequence of Cytochrome P450 2C19 (P33261 whole entry): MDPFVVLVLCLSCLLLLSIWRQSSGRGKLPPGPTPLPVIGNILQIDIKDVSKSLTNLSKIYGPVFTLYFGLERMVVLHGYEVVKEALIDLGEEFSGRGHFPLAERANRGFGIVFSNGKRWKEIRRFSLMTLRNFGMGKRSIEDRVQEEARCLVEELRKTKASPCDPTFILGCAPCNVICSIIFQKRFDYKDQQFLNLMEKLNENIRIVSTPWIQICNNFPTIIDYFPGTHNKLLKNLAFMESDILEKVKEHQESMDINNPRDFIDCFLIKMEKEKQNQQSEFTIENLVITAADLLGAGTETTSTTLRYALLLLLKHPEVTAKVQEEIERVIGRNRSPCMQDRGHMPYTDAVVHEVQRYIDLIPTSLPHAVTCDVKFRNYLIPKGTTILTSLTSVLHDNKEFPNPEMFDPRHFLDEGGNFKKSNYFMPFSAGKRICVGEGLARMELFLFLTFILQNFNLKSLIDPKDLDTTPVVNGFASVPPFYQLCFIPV

[10] = molecular target: T2, Corticotropin-releasing factor receptor 2/Corticotropin-releasing factor-binding protein (Homo sapiens, UniProt P24387+Q13324); test: activators of CRF receptor 2 with binding protein – uHTS hits, confirmation (AID 602473); format: functional; conditions: read-out: EC50_Mean
T2 sequence (Q13324 whole entry): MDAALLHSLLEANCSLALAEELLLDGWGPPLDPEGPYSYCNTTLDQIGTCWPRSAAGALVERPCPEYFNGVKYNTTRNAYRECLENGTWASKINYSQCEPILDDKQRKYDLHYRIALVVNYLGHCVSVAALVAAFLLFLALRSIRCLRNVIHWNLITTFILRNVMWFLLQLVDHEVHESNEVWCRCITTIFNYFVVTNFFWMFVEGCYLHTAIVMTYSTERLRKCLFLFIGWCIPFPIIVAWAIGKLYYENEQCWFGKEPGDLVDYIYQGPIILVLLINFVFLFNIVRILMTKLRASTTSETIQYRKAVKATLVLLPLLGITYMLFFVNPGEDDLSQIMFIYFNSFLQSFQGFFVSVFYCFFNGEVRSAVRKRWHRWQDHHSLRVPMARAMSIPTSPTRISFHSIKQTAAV
T2 sequence (P24387 whole entry): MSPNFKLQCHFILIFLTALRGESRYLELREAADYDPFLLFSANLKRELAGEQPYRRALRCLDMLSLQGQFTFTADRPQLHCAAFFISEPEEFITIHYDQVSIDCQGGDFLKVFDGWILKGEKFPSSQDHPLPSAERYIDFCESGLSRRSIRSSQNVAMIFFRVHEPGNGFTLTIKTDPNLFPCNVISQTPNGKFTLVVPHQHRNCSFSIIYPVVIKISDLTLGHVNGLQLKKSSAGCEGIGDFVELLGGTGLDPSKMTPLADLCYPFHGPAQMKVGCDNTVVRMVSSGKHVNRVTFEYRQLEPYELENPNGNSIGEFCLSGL

Sequence of Cytochrome P450 2C9 (P11712 whole entry): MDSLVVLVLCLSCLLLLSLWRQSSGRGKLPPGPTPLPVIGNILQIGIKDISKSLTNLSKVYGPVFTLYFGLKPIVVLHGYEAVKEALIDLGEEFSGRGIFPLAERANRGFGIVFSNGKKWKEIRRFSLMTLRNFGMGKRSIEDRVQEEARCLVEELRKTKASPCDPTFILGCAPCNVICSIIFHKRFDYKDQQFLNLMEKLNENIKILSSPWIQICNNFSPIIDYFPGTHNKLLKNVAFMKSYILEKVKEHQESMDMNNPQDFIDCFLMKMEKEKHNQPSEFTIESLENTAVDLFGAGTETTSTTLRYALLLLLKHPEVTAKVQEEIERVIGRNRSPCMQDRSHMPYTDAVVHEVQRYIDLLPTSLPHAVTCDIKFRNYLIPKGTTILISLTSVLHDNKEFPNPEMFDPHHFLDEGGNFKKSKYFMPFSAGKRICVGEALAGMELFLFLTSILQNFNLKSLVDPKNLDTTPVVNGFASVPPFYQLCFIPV
Sequence of Cytochrome P450 2D6 (P10635 whole entry): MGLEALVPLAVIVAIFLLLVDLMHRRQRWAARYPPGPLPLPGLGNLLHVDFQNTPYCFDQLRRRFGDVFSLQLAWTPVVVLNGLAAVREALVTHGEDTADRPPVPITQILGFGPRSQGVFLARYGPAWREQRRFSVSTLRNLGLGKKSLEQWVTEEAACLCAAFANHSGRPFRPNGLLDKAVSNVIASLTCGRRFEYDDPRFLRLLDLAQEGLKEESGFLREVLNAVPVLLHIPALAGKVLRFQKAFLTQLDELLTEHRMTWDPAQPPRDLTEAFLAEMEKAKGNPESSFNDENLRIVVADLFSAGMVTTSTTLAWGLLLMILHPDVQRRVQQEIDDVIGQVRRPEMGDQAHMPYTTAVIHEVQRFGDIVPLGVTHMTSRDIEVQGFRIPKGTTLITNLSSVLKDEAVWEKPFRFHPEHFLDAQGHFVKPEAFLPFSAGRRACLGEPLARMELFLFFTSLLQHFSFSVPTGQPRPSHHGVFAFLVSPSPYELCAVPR

O=C(Cc1ccc(Cl)c(Cl)c1)OCCN1CCCC1
AC50 [1]: 31.6 µM (inconclusive)

O=C(CN1C(=O)c2cccc3cccc(c23)C1=O)N1CCCCCC1
AC50 [2]: 22.4 µM (inconclusive)

OC(CNCCc1ccc(Cl)cc1)COc1cc(Cl)ccc1Cl (centres undefined)
CC50 [3]: 15.6 µM (active)

CN(C)C(=O)c1ccc(-c2cc(NCc3ccccc3)ncn2)cc1
AC50 [1]: 39.8 µM (inconclusive)
AC50 [4]: 12.6 µM (inconclusive)

O=c1c(-c2cc(F)cc(F)c2)nc2cnc(N3CCOCC3)nc2n1C[C@H]1CCCO1
AC50 [4]: 2.51 µM (inconclusive)

O=C(C1CCCN(c2ncnc3c2nc2n3CCCCC2)C1)N1CCN(c2cccc(Cl)c2)CC1 (centres undefined)
CC50 [3]: 11.7 µM (active)

Cc1cccc(CNc2ncncc2-c2cccc(C#N)c2)c1
AC50 [1]: 31.6 µM (inconclusive)

CN(C)Cc1ccccc1-c1nc(NCc2cccs2)c2ccccc2n1
AC50 [5]: 6.31 µM (inconclusive)

COc1ccc(CCNC(=O)c2ccccc2NC(=O)c2ccco2)cc1OC
AC50 [4]: 22.4 µM (inconclusive)

CCCn1nnnc1NC(=O)c1ccc(C)cc1Cl
AC50 [2]: 0.2 µM (inconclusive)
AC50 [4]: 10 µM (inconclusive)

COC(=O)[C@@]1(Cc2ccc(F)cc2)[C@H]2c3cc(C(=O)N(C)C)n(CC4CC4)c3C[C@H]2CN1C(=O)c1ccccc1
AC50 [4]: 25.1 µM (inconclusive)

Cc1nc(NC(=O)CSc2cc(C)c3ccccc3n2)c(Cl)cc1Cl
CC50 [3]: > 50 µM (active)

COc1cccc(Cn2c(=O)c(-c3ccccc3)nc3cnc(N(C)C)nc32)c1
AC50 [2]: 15.8 µM (inconclusive)
AC50 [4]: 10 µM (inconclusive)

CCCc1cc2c(n1CCc1ccc(Cl)cc1)C(C)C1CN(C(=O)c3ccccc3)C(C)(C(=O)OC)C21 (centres undefined)
AC50 [4]: 25.1 µM (inconclusive)

Oc1ccc2c3c1O[C@H]1c4[nH]c5ccccc5c4C[C@]4(O)[C@H](C2)N(CC2CC2)CC[C@@]314
AC50 [5]: 0.01 µM (inconclusive)

COc1cccc(-c2nc(Nc3ccncc3)c3ccccc3n2)c1
AC50 [1]: 25.1 µM (inconclusive)

COC(=O)[C@@]1(Cc2ccc(OC)cc2)[C@H]2c3cc(C(=O)N(C)C)n(Cc4ccc(C)c(F)c4F)c3C[C@H]2CN1C(=O)c1ccccc1
AC50 [1]: 12.6 µM (inconclusive)

CCN(CC)C[C@@H](O)CN1CCCCc2nc(C)c(C)cc21
AC50 [1]: 2.51 µM (inconclusive)

COc1cccc(-c2ccc3ncnc(N4CCOCC4)c3c2)c1
AC50 [1]: 31.6 µM (inconclusive)

CCC(=O)Nc1nnc(SCC(=O)c2ccc3c(c2)Cc2ccccc2-3)s1
CC50 [3]: 42 µM (active)

N#Cc1nc(-c2ccco2)oc1N1CCN(c2cccc(Cl)c2)CC1
CC50 [3]: 31.8 µM (active)

O=[N+]([O-])c1ccccc1CSc1nc(O)c2nc[nH]c2n1
AC50 [5]: 3.98 µM (inconclusive)

O=C(Nc1ccc(F)cc1F)c1cc2ccccc2oc1=O
IC50 [6]: 39.7 µM (active)

CS(=O)(=O)Nc1cccc(-c2cncnc2Nc2ccccc2)c1
AC50 [1]: 25.1 µM (inconclusive)

N=C(NOC(=O)c1ccco1)c1ccccc1
EC50 [7]: > 120 µM (not active)
EC50 [8]: 47.4 µM (active)

CNc1nc(-c2ccccc2OC)nc2ccccc12
AC50 [9]: inconclusive
AC50 [5]: 31.6 µM (inconclusive)

Brc1c(CSc2nncc3ccccc23)nc2ccccn12
IC50 [6]: 5.43 µM (active)

CCCCC(=O)NC(Nc1cc(C)ccn1)(C(=O)OCC)C(F)(F)F (centres undefined)
AC50 [4]: 15.8 µM (inconclusive)

CCOc1ccc(C(C)=O)cc1N1C(=O)C2C3C=CC(C3=C(C)C)C2C1=O (centres undefined)
AC50 ([9]; read-out: AC50): 25.1 µM (inconclusive)
AC50 [2]: 5.62 µM (inconclusive)
AC50 [4]: 0.0631 µM (inconclusive)

Cc1ccc(S(=O)(=O)N(C)CC(=O)NCCCc2ccccc2)cc1
EC50 [10]: > 53 µM (inactive)

Cc1ccc(OCC(=O)Nn2cnc3ccccc32)cc1
AC50 [1]: 10 µM (inconclusive)

CCOc1ccc2[nH]c3ccc4nonc4c3c2c1
CC50 [3]: > 50 µM (active)

Cc1ccc(NCCC(=O)c2ccc(Cl)cc2)cc1C
AC50 [5]: 3.55 µM (inconclusive)

CCOc1c2ccc(C(=O)NCc3cc(C(F)(F)F)cc(C(F)(F)F)c3)cc2nn1C
AC50 [1]: 20 µM (inconclusive)
AC50 [2]: 31.6 µM (inconclusive)
AC50 [4]: 17.8 µM (inconclusive)

CCN(CC)C(=O)CSc1nc2ccc(NC(=O)CSc3nnc(COc4ccccc4C)n3C)cc2s1
AC50 [1]: 14.1 µM (inconclusive)

Clc1ccccc1-c1cc(NCc2cccnc2)ncn1
AC50 [5]: 10 µM (inconclusive)

COc1cc([C@H](O)CO)ccc1O
AC50 [5]: 0.0316 µM (inconclusive)

COc1ccc(-c2[nH]ncc2CN2CCCCCCC2)c(OC)c1
IC50 [6]: 18.5 µM (active)

Cn1c2c(c3ccccc31)CC/C2=N\O
CC50 [3]: 38.5 µM (active)

COc1ccccc1C(=O)N/C(=C/c1ccc(Br)cc1)C(=O)NCC(=O)O
AC50 [4]: 12.6 µM (inconclusive)

COc1ccc(CCNC(=O)c2ccc3c(c2)OCCO3)cc1
EC50 [7]: 66.7 µM (active)

CN(C)c1ccc(/C=C/C(=O)c2ccc(O)cc2)cc1
EC50 [10]: 5.34 µM (active)

CCC(=O)n1nc(-c2ccc(OC)cc2)nc1N
AC50 [2]: 0.0562 µM (inconclusive)

O=C(N/N=C/c1ccc(Br)s1)c1ccncc1
IC50 [6]: < 0.1 µM (active)

CCNc1oc(-c2cccc3ccccc23)nc1C#N
CC50 [3]: > 50 µM (active)

CCn1c(-c2ccc(-c3ccccc3)cc2)cnc1S
CC50 [3]: 18.9 µM (active)

O=C(NC(C(=O)N/N=C/c1ccccc1)c1nnc(O)c2ccccc12)c1ccccc1 (centres undefined)
EC50 [10]: 5.14 µM (active)

Cn1c(COc2nnc(-c3ccc(Cl)cc3)c3ccccc23)nc2ccccc21
AC50 ([9]; read-out: AC50): 14.1 µM (inconclusive)
AC50 [4]: 14.1 µM (inconclusive)

Cc1ccc(C)c(S(=O)(=O)N2CCC(c3nc(O)c4nnn(Cc5ccc(F)cc5)c4n3)CC2)c1
AC50 [1]: 14.1 µM (inconclusive)

O=C(Nc1ccccc1N1CCOCC1)c1cnccn1
AC50 ([9]; read-out: AC50): 0.0398 µM (inconclusive)
AC50 [5]: 14.1 µM (inconclusive)

CCCCOc1ccc(S(=O)(=O)NNC(=O)C2Cc3c(ccc4ccccc34)O2)cc1 (centres undefined)
CC50 [3]: 27.1 µM (active)

COc1ccc(-c2c(C)c3ccc(O)cc3oc2=O)cc1
CC50 [3]: 20.9 µM (active)

COc1ccc(CCNc2cc(-c3ccccc3)nc3ncnn23)cc1
IC50 [6]: 2.48 µM (active)

CC(C)NCC[C@@H](O)c1cc2ccccc2o1
AC50 [1]: 3.16 µM (inconclusive)

NC(=O)COC(=O)c1sc2ccccc2c1Cl
IC50 [6]: 37.6 µM (active)

CCOC(=O)c1nc(O)c2c3c(sc2n1)CC(C)CC3 (centres undefined)
IC50 [6]: 4.55 µM (active)

Cc1ccc(C(=O)NN2CCOCC2)cc1
AC50 [1]: 0.224 µM (inconclusive)

OC(COc1ccccc1Cl)CN1CCN(CC(O)COc2ccccc2Cl)CC1 (centres undefined)
IC50 [6]: 17.3 µM (active)

N#Cc1ccc(OCC(=O)Nc2ccncc2)cc1
CC50 [3]: 14.7 µM (active)

CCOC(=O)c1c(C)[nH]c2ccc3c(c12)CN1CCc2cc(OC)ccc2[C@@H]1O3
AC50 [9]: inconclusive
AC50 [5]: 2.51 µM (inconclusive)

CCCS(=O)(=O)N1CCCC(C(=O)NCc2cccnc2)C1 (centres undefined)
AC50 ([9]; read-out: AC50): 15.8 µM (inconclusive)
AC50 [4]: 0.00631 µM (inconclusive)

CN1CC(c2ccccn2)C2(SC(=S)N(Cc3ccccc3)C2=O)C12C(=O)Nc1ccccc12 (centres undefined)
AC50 [1]: 28.2 µM (inconclusive)

CCOC(=O)c1nnn(-c2nc(OC)nc(N3CCCCC3)n2)c1-c1ccccc1
AC50 [2]: 28.2 µM (inconclusive)
AC50 [4]: 14.1 µM (inconclusive)

CC(C)OC(=O)CSc1nc(-c2ccc(F)cc2)nc2ccc(F)cc12
AC50 ([9]; read-out: AC50): 0.112 µM (inconclusive)
AC50 [2]: 0.0178 µM (inconclusive)
